Source: patent publication US8455475B2 (Gruenenthal GmbH, priority 2009, dated 2013)

Target: T1, rat B1R (bradykinin receptor 1) (Rattus norvegicus, UniProt P97583)
T1 construct: expressed in transfected cells; host or cells: CHO K1 cells
T1 sequence (P97583 1-337): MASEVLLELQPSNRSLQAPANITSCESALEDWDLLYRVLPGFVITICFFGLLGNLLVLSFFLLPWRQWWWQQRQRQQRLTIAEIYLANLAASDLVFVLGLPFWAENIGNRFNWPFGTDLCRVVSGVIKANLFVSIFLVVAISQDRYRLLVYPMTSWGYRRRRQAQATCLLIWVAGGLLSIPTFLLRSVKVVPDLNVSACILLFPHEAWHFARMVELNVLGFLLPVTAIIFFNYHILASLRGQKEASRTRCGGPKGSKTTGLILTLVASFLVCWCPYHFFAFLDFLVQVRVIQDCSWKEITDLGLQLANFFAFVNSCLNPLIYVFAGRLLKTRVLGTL
Experiment: FLIPR Ca2+ assay (Fluo-4) on CHO K1 cells stably transfected with the B1R gene of the rat (rB1R cells): % inhibition at 10 μM / IC50, agonist Des-Arg9-bradykinin
Assay type: cell-based
Settings: CHO-K1, rat B1R
Summary of the method: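 Stable CHO K1 lines, Fluo-4 dye, probenecid-containing buffer. Cpd 10 μM or dose range, 10–20 min, then EC80 agonist (h: Lys-Des-Arg9-BK; r: Des-Arg9-BK). Readout peak FC; % inhibition vs max; IC50 from n=2–3, N≥2.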

SMILES	inhibition at 10 µM [%]
Cc1cc(F)ccc1S(=O)(=O)N(C)C1CCc2ccc(C(=O)N3CCC4(CC3)CCN(c3ccncc3)CC4)cc21 (centres unmarked) [IND_CC-326, 4-Fluoro-N,2-dimethyl-N-[6-(9-pyridin-4-yl-3,9-diazaspiro[5.5]undecane-3-carbonyl)-2,3-dihydro-1H-inden-1-yl]-benzenesulfonic acid amide]	100
Cc1noc(C)c1CN1CCC2(CC1)CCN(C(=O)c1ccc3c(c1)C(NC(=O)c1c(F)cccc1Cl)CC3)CC2 (centres unmarked) [IND_CC-799, 2-Chloro-N-[6-[9-[(3,5-dimethyl-isoxazol-4-yl)-methyl]-3,9-diazaspiro-[5.5]undecane-3-carbonyl]-2,3-dihydro-1H-inden-1-yl]-6-fluoro-benzamide]	52
O=C(NC1CCc2ccc(C(=O)N3CCC4(CCN(Cc5ccccn5)CC4)CC3)cc21)c1c(F)cccc1Cl (centres unmarked) [IND_CC-784, 2-Chloro-6-fluoro-N-[6-[9-(pyridin-2-yl-methyl)-3,9-diazaspiro[5.5]undecane-3-carbonyl]-2,3-dihydro-1H-inden-1-yl]-benzamide]	99
Cn1nnc2cc(CN3CCC4(CC3)CCN(C(=O)c3ccc5c(c3)C(NC(=O)c3cc(C(F)(F)F)ccc3Cl)CC5)C4)ccc21 (centres unmarked) [IND_CC-686, 2-Chloro-N-[6-[8-[(1-methyl-1H-benzotriazol-5-yl)-methyl]-2,8-diazaspiro[4.5]-decane-2-carbonyl]-2,3-dihydro-1H-inden-1-yl]-5-(trifluoromethyl)-benzamide]	69
O=C(c1ccc2c(c1)C(NS(=O)(=O)c1c(Cl)cccc1Cl)CC2)N1CCC2(CC1)CCN(c1ccncc1)C2 (centres unmarked) [IND_CC-323, 2,6-Dichloro-N-[6-(2-pyridin-4-yl-2,8-diazaspiro[4.5]decane-8-carbonyl)-2,3-dihydro-1H-inden-1-yl]-benzenesulfonic acid amide]	100
CN(C(=O)c1ccccc1Cl)C1CCc2ccc(C(=O)N3CCC4(CCN(Cc5cc(F)ccc5F)CC4)C3)cc21 (centres unmarked) [IND_CC-550, 2-Chloro-N-[6-[8-[(2,5-difluoro-phenyl)-methyl]-2,8-diazaspiro[4.5]decane-2-carbonyl]-2,3-dihydro-1H-inden-1-yl]-N-methyl-benzamide]	62
CN(C(=O)C1CCCC1)C1CCc2ccc(C(=O)N3CCC4(CC3)CCN(c3ccncc3)CC4)cc21 (centres unmarked) [IND_CC-392, N-Methyl-N-[6-(9-pyridin-4-yl-3,9-diazaspiro[5.5]undecane-3-carbonyl)-2,3-dihydro-1H-inden-1-yl]-cyclopentanecarboxylic acid amide]	102
N#Cc1cccc(CN2CCC3(CC2)CCN(C(=O)c2ccc4c(c2)C(NC(=O)c2ccccc2Cl)CC4)CC3)c1 (centres unmarked) [IND_CC-534, 2-Chloro-N-[6-[9-[(3-cyano-phenyl)-methyl]-3,9-diazaspiro[5.5]undecane-3-carbonyl]-2,3-dihydro-1H-inden-1-yl]-benzamide]	102
O=C(c1ccc2c(c1)C(NS(=O)(=O)Cc1ccccc1F)CC2)N1CCC2(CC1)CCN(c1ccncc1)CC2 (centres unmarked) [IND_CC-349, 1-(2-Fluorophenyl)-N-[6-(9-pyridin-4-yl-3,9-diazaspiro[5.5]undecane-3-carbonyl)-2,3-dihydro-1H-inden-1-yl]-methanesulfonic acid amide]	105
COc1ccc(C(=O)N(C)C2CCc3ccc(C(=O)N4CCC5(CC4)CCN(c4ccncc4)CC5)cc32)c(Cl)c1 (centres unmarked) [IND_CC-201, 2-Chloro-4-methoxy-N-methyl-N-[6-(9-pyridin-4-yl-3,9-diazaspiro[5.5]undecane-3-carbonyl)-2,3-dihydro-1H-inden-1-yl]-benzamide]	99
O=C(NC1CCc2ccc(C(=O)N3CCC4(CCN(CCc5ccccc5)CC4)C3)cc21)c1cc(C(F)(F)F)ccc1Cl (centres unmarked) [IND_CC-690, 2-Chloro-N-[6-(8-phenethyl-2,8-diazaspiro[4.5]decane-2-carbonyl)-2,3-dihydro-1H-inden-1-yl]-5-(trifluoromethyl)-benzamide]	85
